Reference: paper PMC3251867 (British Journal of Cancer, 2011)
“And” between values parts separate entries of the source, which are not always exact repeats. Identical values can stand only once. “Also recorded” adds a separate entry of the source. Like-named read-outs stand apart in the source and are kept apart here. Marks after values point to notes of the source that are not given here. One block for each molecule: values may come before it.

Key:
[1] = CRA trough plasma concentrations (LC-MS/MS); format: in vivo, human
Procedure: Cis retinoic acid PK studies were performed during the first 2 cycles of therapy. Serial sampling of venous blood was obtained at the following times: pre-treatment on Cycle 1, days 1, 2, 3, 4, 8, and 15 and pre-treatment on Cycle 2, days 1, 15, 16, 17, and 22. Blood samples were collected in heparinised tubes and were processed by centrifugation within 30 min at 1000 g at 4 °C for 10 min. Plasma was stored at −20 °C until analysis using a validated LC-MS/MS analytical method. Briefly, 1 ml plasma was extracted with 5 ml of acetonitrile/n-Butyl chloride (1 : 4, v/v) containing paclitaxel. Cis retinoic acid was separated on a Waters (Milford, MA, USA) X-Terra MS C18 (50 × 2.1 mm, 3.5 μm) column with 0.1% formic acid in acetonitrile/10 mM ammonium acetate (80 : 20, v/v) using isocratic flow of 0.2 ml min^−1 for 5 min. Cis retinoic acid was quantitated over the range of 5–2000 ng ml^−1. Quality control samples were assayed with each analytic run and were within 15% of the nominal concentration. […] Cmin at steady state (Css,min) was calculated for each patient by taking the average of the Cmin during each cycle.
Descriptive statistics were used to summarise patient characteristics, efficacy, and safety data. […] Differences between CRA Css,min during each cycle were evaluated statistically by use of a non-parametric, 2-sided Wilcoxon signed rank test for paired observations. […]

[2] = set-up: method as in Thurn et al, 2011; details: CRA after administration of a similar dose; ref Thurn et al, 2011; cited from earlier work
[3] = Entinostat plasma pharmacokinetics (LC-MS/MS, non-compartmental analysis); format: in vivo, human; details: for Cls/F (apparent oral clearance) / half-life / Tmax / Cmax / AUC: plasma; for half-life / Tmax / Cmax / AUC: human; for AUC: read-out: AUC0−∝
Procedure: Pharmacokinetic studies were performed during the first 2 cycles of therapy. […] Blood samples were collected in heparinised tubes and were processed by centrifugation at 1000 g for 10 min. Plasma was stored at −20 °C until analysis. […] Quality control samples were assayed with each analytic run and were within 15% of the nominal concentration. Individual PK parameters were estimated by standard non-compartmental analysis, which was performed using WinNonlin, Version 5.3 (Pharsight Corporation, Mountain View, CA, USA; [Gibaldi, 1982]). Descriptive statistics were used to summarise patient characteristics, efficacy, and safety data. Pharmacokinetic parameters were summarised by descriptive statistics using dose-normalised parameters for dose-dependent parameters and actual values for dose-independent parameters. Kruskal–Wallis analysis of variance by ranks or the Wilcoxon rank-sum were used to compare the differences in entinostat PK parameters and CRA Css,min as a function of dose level. […] Statistical calculations were performed with the software package JMP, Version 4.0.4 (SAS Institute, Cary, NC, USA). The a priori level of significance was set at P<0.05.

[4] = system: human prostate cancer cell line (LAPC4); test: PSA secretion and PSA gene expression in LAPC4 cells in vitro; format: cell-based
Excerpt: The sudden rise of tumour marker CA 19-9 in a patient with unresectable pancreatic cancer was worrisome for a rapid clinical progression. However, the CT scan documented stable disease for 6 months. […] An increase in the PSA slope occurred while on treatment, with a rapid deflection following treatment discontinuation. […] This observation poses some challenges as in the clinical development of ‘differentiation’ therapies increasing tumour marker levels may not be a significant sign for disease progression, but rather a potential signal of biological activity. […] Accordingly, the use of tumour markers for disease response assessment is evolving and needs to be further validated in prospective studies. Recently, the Prostate Cancer Clinical Trials Working Group recommended that in most clinical trials early changes in PSA should not be acted on without other evidence of disease progression, and treatment should be continued for at least 12 weeks to ensure adequate drug exposure ([Scher et al, 2008]).

[5] = set-up: method as in Gore et al, 2008; details: entinostat single agent, 7- or 14-day schedule; ref Gore et al, 2008; cited from earlier work
[6] = system: histone H3 acetylation in PBMCs; test: Western blot of histone H3 acetylation in PBMCs; format: in vivo, human; details: pre-treatment vs post-treatment time points, entinostat with CRA
Procedure: (§1) A pre-treatment sample was taken on day 15. During Cycle 2, and subsequent cycles, samples were collected pre-treatment on days 1 and 15. […] Peripheral blood mononuclear cells were collected from patients according to the study calendar schedule. For isolation of PBMCs, 10 ml of blood were collected in CPT tubes (Vacutainer CPT Cell Preparation Tube with NC: 0.45 ml; Ficoll: 1.0 ml; Becton Dickinson, Franklin Lakes, NJ, USA) and plasma was separated by centrifugation. Differential centrifugation of plasma was performed to isolate PBMCs, which were kept frozen at −80 °C until the end of the study schedule for each patient. Fine needle aspiration (FNA) was planned on Cycle 1, day 22 in patients with accessible tumours to assess changes in acetylation and signalling pathway expression. For western blotting, PBMCs and tumour tissue were lysed in M-PER mammalian protein extraction reagent (Pierce, Rockford, IL, USA) with protease inhibitor cocktail (Roche Diagnostics, Indianapolis, IN, USA), followed by brief sonication. Proteins (20 μg per lane) from cell lysates were applied to 4–15% Tris-HCl gels (Bio-Rad, Hercules, CA, USA) and blotted with primary antibodies that were purchased from Upstate (Lake Placid, NY, USA) for anti-acetyl histone H3 and from Sigma (St Louis, MO, USA) for β-actin clone A1978, ERK, and phosphorylated ERK.

[7] = entinostat oral once weekly (fasting) with 1 mg kg^−1 CRA
Procedure: A starting dose of 4 mg m^−2 and a fixed CRA dose at 1 mg kg^−1 per dose level were planned. If a patient experienced toxicities the next lower level was 2 mg m^−2. […] Originally six dose levels were included ([…]). Each cohort consisted of three patients according to the standard 3+3 design, where if one patient experiences a DLT, three additional patients are enroled.
Dose-limiting toxicity was defined as first cycle adverse events ⩾grade 3 non-haematological or ⩾grade 4 haematological toxicities. The MTD was defined as one dose level below the dose at which ⩾ two of six patients experience DLT. […] Tumour response assessment was performed every two cycles (2 months) by both clinical assessment and imaging studies.

[8] = system: phosphorylated ERK in tumour tissue; test: Western blot of tumour FNA: phosphorylated ERK; format: in vivo, human; details: FNA of liver lesion, patient with metastatic prostate cancer; entinostat with CRA
Procedure: as §1

[9] = system: acetylated H3 in tumour tissue; test: Western blot of tumour FNA: acetylated H3; format: in vivo, human; details: FNA of liver lesion, patient with metastatic prostate cancer; entinostat with CRA
Procedure: as §1

average Css,min ([1]; Cycle 1, CRA 1 mg kg^−1 per day oral with entinostat): 194.9 ± 103.5 ng/mL
average Css,min ([1]; Cycle 2, CRA 1 mg kg^−1 per day oral with entinostat): 131.8 ± 79.3 ng/mL
SMILES: CC1=C(/C=C/C(C)=C/C=C/C(C)=C\C(=O)O)C(C)(C)CCC1 [CRA, 13-cis retinoic acid]
steady-state trough concentrations [2]: 160 ± 19 ng/mL

SMILES: Nc1ccccc1NC(=O)c1ccc(CNC(=O)OCc2cccnc2)cc1 [entinostat]
patients with measurable entinostat concentrations ([3]; 1 week post-treatment): 14 of 17
Cls/F (apparent oral clearance) ([3]; all dose levels (Total) with CRA, Cycle 1, day 1, mean±s.d., n=13): 14.9±22.0 ^c l h^−1 m^−2
Cls/F (apparent oral clearance) ([3]; all dose levels (Total) with CRA, Cycle 1, day 1, mean±s.d., n=13, listed as Entinostat): 14.9±22.0 l h^−1 m^−2
variability in clearance ([3]; entinostat with CRA, patients with solid tumours): 147%
half-life ([3]; oral, all dose levels (Total) with CRA, Cycle 1, day 1, mean±s.d., n=13, read-out: T1/2 (terminal half-life) (converted)): 4.73 ± 3.26 days
Tmax ([3]; oral, all dose levels (Total, 4 and 5 mg m^−2) with CRA, Cycle 1, day 1, median (range), 18 patients): 25.2 min
Cmax ([3]; po, 4 mg m^−2): 114 ± 84 ng/mL
Tmax ([3]; po, 4 mg m^−2): 30 min
AUC ([3]; po, 4 mg m^−2): 587 ± 401 ng·h/mL
half-life ([3]; po, 4 mg m^−2, read-out: T1/2 (converted)): 5.4 ± 3.69 days
Cmax ([3]; po, 5 mg m^−2): 109 ± 66 ng/mL
Tmax ([3]; po, 5 mg m^−2): 15 min
AUC ([3]; po, 5 mg m^−2): 778 ± 648 ng·h/mL
half-life ([3]; po, 5 mg m^−2, read-out: T1/2 (converted)): 3.22 ± 1.33 days
PSA gene expression [4]: no change
increase in PSA secretion into the culture media ([4]; achievable plasma concentrations of entinostat, data not shown): 2.5 fold
Tmax [5]: ≤ 1 h
variability in clearance [5]: 24–68%
histone H3 acetylation in PBMCs [6]: transient increased acetylation
maximum tolerated dose (MTD) [7]: < 5 mg m^−2 and 4 mg m^−2
phosphorylated ERK protein levels in tumour [8]: decreased; also recorded: inhibition
intra-tumoural acetylated H3 [9]: increased; also recorded: induction
